# Laboratory results from US9439916B2, “Composition for decelerating the aging in the organism and for extending the life time thereof and the use of said composition” (MITOTECH SA, priority 2007, dated 2016).
# Columns and labels:
# Format in all cases: in vivo
# OXYS rats [1] = assay: Bone tissue state by X-ray densitometry (osteoporosis); details: two 45-day courses of 50 nanomoles per kg per day, studied at 6 months
# Experimental: Experiments were conducted on the two lines of rats—Wistar and OXYS. Genetically determined metabolic defect, manifesting itself as decreased resistance of OXYS rats towards oxidative stress, leads to changes in their organism which may be regarded as accelerated ageing syndrome. In particular, reduced bone mineral density in OXYS rats, as compared to Wistar rats, is observed. Such changes are also observed in osteoporosis in humans that allows us to consider these animals as an adequate model of senile osteoporosis in humans.
# Wistar and OXYS rats,—control rats and those who received two courses of SkQ1 (50 nanomoles per kg of body weight per day), were studied. The animals received the preparation since 1.5 and 4 months of age for 45 days. At the age of 6 months, bone tissue state was studied by X-ray densitometry.
# [2] = system: horse with senile blindness; assay: Veterinary clinical trial, senile blindness in a horse
# Source text: B) Patient—horse, gelding, not thoroughbred, age—20 years. Diagnosis—senile blindness associated with degeneration of the retina and its vessels. Clinical signs—shortening and thinning of retinal vessels emanating from the optic disk, depigmentation of t. lucidum t. nigrum, thinning of the retina over the entire surface of eye fundus. As a result, Choroid blood vessels in the form of straight lines are well visualized, posterior polar senile cataract is detected. The animal cannot see during the last eight months.
# Treatment—daily instillation of 250 nM SkQ1 solution (in physiological solution at pH 6.5), and since the 3rd month of treatment—2 times a day.
# Drosophila melanogaster = assay: Life span of fruit flies, line w1118, fed SkQ1
# Experimental: Isogenous laboratory Drosophila line w^1118 in which all individuals have the same genotype was chosen for the experiments, thus eliminating the influence of genetic differences between individuals on the results of experiments. The mitochondria-targeted antioxidant SkQ1 at a concentration of 1.85 nM was tested. Stock SkQ solution was diluted in distilled water. Adult flies were administered the compound throughout their lives. Since adult flies can feed on food located on the surface, it was decided to spread the SkQ1 solution of a corresponding concentration on the surface of freshly prepared medium poured into test tubes containing the flies. Virgin females and males of line w^1118 selected during the day were placed in tubes, each tube contained five individuals (males and females separately), in standard medium. In control tubes, 100 μl of distilled water without SkQ was spread on standard medium surface; in test tubes, 100 μl of the test compound at a selected concentration was spread on standard medium surface. The number of live flies in each tube was recorded daily, once a week flies were transferred to a corresponding fresh medium. All tubes were incubated at 25° C. In each experiment, 100 individuals (20 tubes) were analyzed.
# female SHR mice = assay: Age-related changes in estrous function of female SHR mice
# Experimental: (§1) An experiment with outbred SHR mice was carried out. The mice were divided into four groups (25 animals per each group). The three groups received a certain amount of SkQ1 with drinking water throughout their lives, and the fourth (control) group received water without SkQ1. Dose of SkQ1 is given in nanomoles per kg of animal weight per day.
# With increasing the duration of the observation period, tendency of decelerating age-related disorders in estrous function in experimental animals becomes more pronounced, which were expressed as increase in the duration of cycle and lowering the frequency of regular cycles. For example, in the 2nd cohort in 15-month-old experimental animals received SkQ1 at a dose of 0.01 nanomoles per day, the frequency of regular cycles was 94%, whereas in the control—67%.
# SHR mice = assay: Life span of outbred SHR mice receiving SkQ1 with drinking water; details: for animals remained alive in 707 days of the experiment: SHR mice, SkQ1 with drinking water lifelong, control 8%
# Experimental: as §1
# (V. N. Anisimov, I. N. Alimova, D. A. Baturin, I. G. Popovich, M. A. Zabezhinski, S. V. Rosenfeld, K. G. Manton, A. V. Semenchenko, A. I. Yashin (2003) Dose-dependent effect of melatonin on life span and spontaneous tumor incidence in female SHR mice. Exp Gerontol. 38, 449-461).
# p53 (-/-) mice = assay: Life span of p53 gene knockout mice; details: 0.1 nmoles per mouse per day (5 nM/kg/day) with drinking water
# Source text: Mice lacking the p53 gene (p53−/−) can not synthesize the p53 protein, so-called “guardian of the genome”, and can serve as a model of accelerated ageing and death of the organism caused by cancer [for more details, see A. A. Sablina, A. V. Budanov, G. V. Ilyinskaya, L. S. Agapova, J. E. Kravchenko, P. M. Chumakov (2005) The antioxidant function of the p53 tumor suppressor //Nature Med., 11, 1306-1313)].
# Based on the previously conducted PCR analysis detecting p53−/−, p53+/− and p53+/+ mice in the progeny of heterozygous (p53+/−) animals, the two groups of mice were drawn up which received: • clean drinking water; • water supplemented with SkQ1 (0.1 nmoles of the preparation per mouse per day (5 nM/kg/day)).
# rats = assay: Behavioral tests "open field" and "elevated cruciform maze"
# OXYS male rats = assay: Sexual motivation model: male near receptive female behind a barrier; details: one year old OXYS males
# Source text: […] To do this, an experimental model of sexual arousal was used—males were kept under conditions allowing them to see the receptive female, perceive the female's smell, but excluding physical contact with the female. Under these conditions, male rats and male mice show increase in blood testosterone level and typical motivational behavior.
# [3] = system: cat with senile generalized progressive retinal dystrophy; assay: Veterinary clinical trial, senile blindness in a cat; details: 15 years, daily instillation of 250 nM SkQ1 solution, pH 6.5
# Experimental: A) Patient—cat, breed—European Shorthair, age—15 years. Diagnosis—retinitis, papillitis, senile generalized progressive retinal dystrophy. Clinical signs—depigmentation of t. lucidum, the optic disk (OD) is violet. Retinal detachment. Vision is absent.
# Treatment—daily instillation of 250 nM SkQ1 solution (in physiological solution at pH 6.5).
# OXYS rats [4] = assay: Morris water maze test of learning ability; details: 16-month-old OXYS rats, 250 nanomoles per kg of body weight since 1.5 months
# Source text: The Morris water maze test is actively used for studies on learning and long-term spatial memory in animals. The method of Morris allows to evaluate strategies for behavior, dynamics of skill formation, to detect even weak differences in behavior. This test evaluates the ability of an animal, swimming in the opaque water of the pool and looking at the signs on its sides, to learn how to find the invisible, hidden platform under water, no matter from what point of the perimeter of the pool the animal was released.
# In subsequent experiments, 4 groups of 16-month-old animals: control Wistar and OXYS rats, and groups received the preparation since 1.5 months at a dose of 250 nanomoles per kg of body weight, were used. A latent period of time spent by rats to find the platform depended only on the genotype—it took longer in OXYS rats than in Wistar rats—OXYS rats coped worse with the task.
structure (smiles),measurement,setting,value
CC1=C(C)C(=O)C(CCCCCCCCCC[P+](c2ccccc2)(c2ccccc2)c2ccccc2)=CC1=O [SkQ1],bone mineral density of femur and tibia,OXYS rats [1],reliably increased
same,total mass of bone tissue,OXYS rats [1],reliably increased
same,vision after 90 days of the treatment,"[2]; 20 years, instillation of 250 nM SkQ1 solution daily, 2 times a day since 3rd month",The vision was restored
same,growth of new blood vessels from the optic disk,[2]; after 90 days of the treatment with 250 nM SkQ1 instillation,40
same,fraction of individuals aged 70 days and older,"Drosophila melanogaster; 1.85 nM SkQ1, control 0.18, P=0.0056",0.48
same,average life expectancy,"Drosophila melanogaster; 1.85 nM SkQ1 on medium surface, 25° C., control 58 days, P=0.0012",66 days
same,frequency of regular estrous cycles,"female SHR mice; 2nd cohort, 15-month-old female SHR mice, 0.01 nanomoles per day, control 67%",94%
same,age-related changes in estrous function,"female SHR mice; female SHR mice received SkQ1, compared to the control group",less pronounced age-related changes in estrous function
same,animals remained alive in 707 days of the experiment,SHR mice; first of three test groups (dose not given),36%
same,animals remained alive in 707 days of the experiment,SHR mice; second of three test groups (dose not given),28%
same,animals remained alive in 707 days of the experiment,SHR mice; third of three test groups (dose not given),24%
same,life span of SHR mice,"SHR mice; optimal doses (1 nanomole per animal per day), versus control",much longer life span
same,life span of p53 (-/-) mice,p53 (-/-) mice,dramatic increase of the life span
same,stress-protective effect,rats; Wistar rats,clear stress-protective effect
same,search and exploratory activity of rats,rats; open field and elevated cruciform maze,positive effect
same,time spent by a male rat near a female rat separated by a barrier,"OXYS male rats; 50 nanomoles of SkQ1, versus control males",reliably increased
same,time spent by a male rat near a female rat separated by a barrier,"OXYS male rats; 250 nanomoles of SkQ1, versus control males",reliably increased
same,vision after 10 days of the treatment,[3],"the pupil began to respond to light, the cat began to play with the ball and see even small objects"
same,vision after 21 days of the treatment,[3],vision retained
same,ability to learn (latent period to find the platform in the Morris maze),OXYS rats [4],improved the ability of OXYS rats to learn
